Test results taken from PubChem BioAssay AID504726 (Broad Institute, 2011).
Calls of active or inactive are those of the source.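 Rule for the calls: active = fitted half-maximal concentration for a cytotoxic signal drop no higher than ten times the top valid dose tested; inconclusive = flat curve between -70 and -30 percent, or an unreliable fit; inactive = flat within 30 percent, signal rise, or potency beyond limit.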

Assay: viability loss in HeLa cells – cell-based, 24 h, cherry-picked samples, cytotoxicity control, dose response (AID 504726);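 note: 0% = DMSO neutral controls and -100% = mitoxantrone positive controls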
Settings: HeLa viability, CellTiter-Glo ATP luminescence, 24 h; at 35 µM (top of the series)

Row | Compound | activity change, negative = cytotoxicity
1 | O=C(CCN1C(=O)/C(=C/c2ccco2)SC1=S)Nc1ccc(C(=O)O)c(O)c1 | 2.73% (inactive)
2 | CN1C(=O)NC(c2ccccc2[N+](=O)[O-])C2=C1CCCC2=O (configuration not stated) | -9.55% (inactive)
3 | Cc1c(C)n(Cc2ccccc2)c2ncnc(Cl)c12 | -17.6% (inactive)
4 | Cc1nn(CC(=O)c2ccc(Br)s2)c(C)c1[N+](=O)[O-] | -2.98% (inactive)
5 | CC(C)Cn1c(N)c(C(=O)CSc2nnc(-c3ccco3)n2C)c(=O)n(C)c1=O | -1.08% (inactive)
6 | O=C(NCc1cccnc1)C(=O)C1C(=O)Nc2ccccc21 (configuration not stated) | -6.53% (inactive)
7 | Nc1nc(SCC(=O)N2CCCCC2)[nH]c(=O)c1NC(=O)c1cccs1 | -0.747% (inactive)
8 | Cn1c(=O)c(NC2CCCCC2)c2c3c(cccc31)C(=O)c1ccccc1-2 | -11.9% (inactive)
9 | O=S(=O)(O)c1cccc2cccc(Nc3ccccc3)c12 | -4.31% (inactive)
10 | CC(C)C(=O)N1CCN(c2ccccc2NC(=S)NC(=O)c2ccco2)CC1 | -12.9% (inactive)
11 | O=C1CN=C(Nc2ccccc2Cl)N1Cc1ccc2c(c1)OCO2 | -6.04% (inactive)
12 | O=C(c1coc(=O)c(Br)c1)N1CCCc2ccccc21 | -15% (inactive)
13 | O=C(O)C(Cc1ccccc1)N1C(=O)/C(=C/C=C/c2ccco2)SC1=S (configuration not stated) | -11.4% (inactive)
14 | O=C(NC12CC3CC(CC(C3)C1)C2)N1CCN(c2ncccn2)CC1 | 12.9% (inactive)
15 | CS(=O)(=O)c1cccc(C(=O)Oc2ccccc2)c1 | 5.26% (inactive)
16 | Cc1cnc(NC(=O)Cc2c[nH]c3ccccc23)s1 | -3.77% (inactive)
17 | CN(C)c1ccc(O)c2c1CC1CC3[C@@H](N(C)C)C(=O)C(C(N)=O)=C(O)[C@]3(O)C(=O)C1=C2O (some centres not stated) | -1.73% (inactive)
18 | COC(=O)C1=COC(C)C2CN3CCc4c([nH]c5ccccc45)C3CC12 (configuration not stated) | -14.1% (inactive)
19 | COc1cc(-c2ccc(Nc3ccccc3C(=O)O)c(OC)c2)ccc1Nc1ccccc1C(=O)O | -14.8% (inactive)
20 | Cc1ccc(N(CC(=O)N2CCOCC2)S(C)(=O)=O)cc1 | -3.08% (inactive)
21 | O=C(N/N=C/c1ccc(N2CCOCC2)cc1)c1ccccn1 | -14.2% (inactive)

Row | Compound | activity change, negative = cytotoxicity
22 | CCOC(=O)c1ccc[n+](CC(=O)c2ccc(OC)cc2)c1 | -1.73% (inactive)
23 | CCCc1nc(NCc2ccccn2)c2nnn(Cc3ccccc3F)c2n1 | -9.25% (inactive)
24 | O=C(c1ccc2c(c1)CCN2S(=O)(=O)c1ccccc1)N1CCN(c2ccc(F)cc2)CC1 | -13.2% (inactive)
25 | Cc1ccc(NC(=O)CN(C)C(=O)c2nn(C)c(=O)c3ccccc23)cc1 | -13.7% (inactive)
26 | CCOCCCn1c(SCC(=O)NC(C)(C)C)nc2ccccc2c1=O | -18.7% (inactive)
27 | O=C(CN1C(=O)/C(=C/c2ccco2)SC1=S)Nc1ccc(C(=O)O)c(O)c1 | -0.625% (inactive)
28 | O=C(CN1CC[C@@]2(O)CCCC[C@H]2[C@@H]1c1ccc(F)cc1)NCc1ccco1 | -5.52% (inactive)
29 | Cc1ccc(C)c(N2CCN(C(=O)c3cc4ccccn4n3)CC2)c1 | 3.79% (inactive)
30 | O=C(O)C1Nc2c(O)cc(Cl)c([N+](=O)[O-])c2C2C=CCC12 (configuration not stated) | -21.5% (inactive)
31 | Cc1cc(NC(=O)CSc2nnc(COc3cccc(C)c3C)n2C)no1 | 6.24% (inactive)
32 | CCc1ccc(N2CC(C(=O)OCC(=O)N(CC)c3c(N)n(Cc4ccccc4)c(=O)[nH]c3=O)CC2=O)cc1 (configuration not stated) | -9.97% (inactive)
33 | CCCn1c(SCC(=O)NCc2cccs2)nc2c1c(=O)n(C)c(=O)n2C | 7.8% (inactive)
34 | Cc1ccc2cccc(OCC(=O)NCCC3=CCCCC3)c2n1 | -6.65% (inactive)
35 | O=S(=O)(O)c1cc(Cl)cc(N=Nc2ccc(O)cc2O)c1O | -12.1% (inactive)
36 | COc1ccc(NS(=O)(=O)c2ccc3c(c2)[C@H]2C=CC[C@H]2[C@@H](c2ccc(C(=O)O)cc2)N3)cc1 | -3.11% (inactive)
37 | O=C(O)C1(c2ccccc2)CCN(S(=O)(=O)c2ccc(Cl)s2)CC1 | -1.76% (inactive)
38 | C/C(=N\NC(=O)CCc1c(C)n[nH]c1C)c1ccc([N+](=O)[O-])cc1 | 6.48% (inactive)
39 | O=C(Nc1cc(Cl)ccc1-n1cncn1)c1cccs1 | -6.29% (inactive)
40 | COc1ccc(C(=O)N/N=C/c2ccc(OC)c(COc3ccccc3)c2)cc1 | -5.44% (inactive)
41 | COc1ccccc1CNC(=O)CCS(=O)(=O)c1cccs1 | 4.31% (inactive)
42 | O=C(Cn1nc(Cc2ccncc2)c2ccccc2c1=O)N1CCN(C(=O)c2ccco2)CC1 | -4.22% (inactive)
